Measured values from patent US20140179681A1, “METHODS AND COMPOSITIONS OF TARGETED DRUG DEVELOPMENT” (priority 2010, published 2014).
Several values for one entry are separate records, joined by “and”; a condition that tells them apart may be missing. Identical values can stand only once. Like-named read-outs stand apart in the source and are kept apart here.

Tests used:
EGFR = target: T1, EGFR (Homo sapiens, UniProt P00533); assay: EGFR in-cell Western (ICW) screening protocol (EGFR inhibition assay); type: cell-based; details: for ICW assay: Table 10, % Inhibition of EGF dependent EGFR phosphorylation in A431 cells, compound 125 μM in assay
T1 construct: host or cells: A431
How it was run: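 In-cell Western read-out: fixed A431 cells were co-stained for total EGFR and phospho-EGFR (Tyr1173; some runs Tyr1045). Before fixation, cells were serum-starved for 2 h, exposed to compound for 4 h, then given EGF for 10 min, usually at 10 ng/ml final (6.6 or 12.5 ng/ml in some runs).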

[1] = system: epithelial carcinoma A431 cell line; assay: MTT Cell Proliferation Assay, A431 cells; type: cell-based
How it was run: (§1)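 Each concentration ran in quadruplicate across duplicate plates, with compounds serially diluted in DMSO and delivered at 0.5% DMSO in 0.5% FBS medium for 3 days.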

MDBK line = assay: MTT Cell Proliferation Assay, MDBK cells; type: cell-based, bovine
How it was run: as §1

[2] = Homo sapiens, A-431, first value of 'a/b (c)', taken as A431 cells, read-out: MTT Screen, first value of cell
[3] = Bos taurus, MDBK, second value of 'a/b (c)', taken as MDBK cells, read-out: MTT Screen, second value of cell
[4] = first value of 'a/b (c)', taken as A431 cells, read-out: MTT Screen, first value of cell
[5] = second value of 'a/b (c)', taken as MDBK cells, read-out: MTT Screen, second value of cell
[6] = Homo sapiens, A-431, 72 h, Table 10, first of x/y(ratio): A431, three day treatment, unit not printed (doses in μM), read-out: MTT assay (first value)
[7] = Bos taurus, MDBK, 72 h, Table 10, second of x/y(ratio): MDBK, three day treatment, unit not printed (doses in μM), read-out: MTT assay (second value)
[8] = Table 10, first of x/y(ratio): A431, three day treatment, unit not printed (doses in μM), read-out: MTT assay (first value)
[9] = Table 10, second of x/y(ratio): MDBK, three day treatment, unit not printed (doses in μM), read-out: MTT assay (second value)

T1 sequence (P00533 25-1210): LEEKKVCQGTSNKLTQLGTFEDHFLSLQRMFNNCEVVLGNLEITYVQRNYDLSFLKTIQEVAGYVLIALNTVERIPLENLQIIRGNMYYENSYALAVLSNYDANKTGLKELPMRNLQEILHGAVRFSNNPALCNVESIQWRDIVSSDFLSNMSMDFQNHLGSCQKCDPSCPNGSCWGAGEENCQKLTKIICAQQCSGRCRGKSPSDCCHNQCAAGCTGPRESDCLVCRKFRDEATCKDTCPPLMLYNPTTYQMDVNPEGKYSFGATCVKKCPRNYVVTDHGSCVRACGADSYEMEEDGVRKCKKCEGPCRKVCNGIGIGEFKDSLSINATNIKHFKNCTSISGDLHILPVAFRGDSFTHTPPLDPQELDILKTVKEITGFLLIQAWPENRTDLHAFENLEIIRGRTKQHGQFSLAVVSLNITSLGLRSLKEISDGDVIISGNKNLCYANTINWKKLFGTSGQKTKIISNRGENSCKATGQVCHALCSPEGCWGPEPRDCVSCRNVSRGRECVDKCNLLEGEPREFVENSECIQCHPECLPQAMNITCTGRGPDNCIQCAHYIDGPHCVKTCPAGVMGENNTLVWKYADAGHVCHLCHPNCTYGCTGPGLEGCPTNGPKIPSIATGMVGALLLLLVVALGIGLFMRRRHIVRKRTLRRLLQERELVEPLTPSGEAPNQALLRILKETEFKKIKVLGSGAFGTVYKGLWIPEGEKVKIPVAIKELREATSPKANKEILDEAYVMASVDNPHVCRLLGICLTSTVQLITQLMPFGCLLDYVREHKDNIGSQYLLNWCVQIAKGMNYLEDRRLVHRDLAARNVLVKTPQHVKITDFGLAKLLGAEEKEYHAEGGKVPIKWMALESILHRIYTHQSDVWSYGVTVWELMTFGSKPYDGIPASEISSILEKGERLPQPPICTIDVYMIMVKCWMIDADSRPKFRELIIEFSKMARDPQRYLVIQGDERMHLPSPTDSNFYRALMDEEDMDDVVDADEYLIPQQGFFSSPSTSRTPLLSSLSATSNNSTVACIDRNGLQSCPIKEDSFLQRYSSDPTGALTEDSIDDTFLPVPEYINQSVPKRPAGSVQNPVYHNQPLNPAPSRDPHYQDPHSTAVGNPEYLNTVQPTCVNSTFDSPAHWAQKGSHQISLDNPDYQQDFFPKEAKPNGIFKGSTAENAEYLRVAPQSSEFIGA

Compound	ICW Screen (ICW Inhibition) (EGFR)	IC50 [1, 2] [µM]	IC50 (MDBK line; [3]) [µM]	ICW assay (EGFR)	IC50 [1, 6] [µM]	IC50 (MDBK line; [7]) [µM]	further results
Cc1cc(C)cc(NS(=O)(=O)c2ccc(NC(=S)NC(=O)CCc3ccccc3)cc2)c1 [AD4-12139]	41.23	18.6	5.3				
CN1CCN(S(=O)(=O)c2ccc(NC(=S)NC(=O)/C=C/c3ccccc3)cc2)CC1 [AD4-12145]	30.469	40.5	41.8				
CC1CCC(S(=O)(=O)c2ccc(NC(=S)NC(=O)C3CC3)cc2)CC1 (stereo not drawn) [AD4-12146]	40.916	26.6	25.8				
COc1ccccc1/C=C/C(=O)NC(=S)Nc1ccc(S(=O)(=O)Nc2nc(C)cc(C)n2)cc1 [AD4-12148]	51.845	42.8	39.2				
COc1ccc(NS(=O)(=O)c2ccc(NC(=S)NC(=O)CCC(=O)OCCc3ccccc3)cc2)cc1 [AD4-12149]	33.331	21.9	36.2				
Cc1ccc(NS(=O)(=O)c2ccc(NC(=S)NC(=O)COc3ccc(Cl)cc3C)cc2)c(C)c1 [AD4-12152]	50.528	21	16.2				
CC1CCN(S(=O)(=O)c2ccc(NC(=S)NC(=O)CCC(=O)OCCc3ccccc3)cc2)CC1 [AD4-12153]	31.36	15.6	21.8				
Cc1cc(C)nc(NS(=O)(=O)c2ccc(NC(=S)NC(=O)COc3ccc(Br)cc3Cl)cc2)n1 [AD4-12158]	36.727	5.01	4.58				
COc1ccc(OCC(=O)NC(=S)Nc2ccc(S(=O)(=O)Nc3cc(C)cc(C)c3)cc2)cc1 [AD4-12165]	36.632		12				IC50 [1, 4]: 63.6 µM
CN(c1ccccc1)S(=O)(=O)c1ccc(NC(=S)NC(=O)/C=C/c2ccccc2)cc1 [AD4-12168]	28.819	60.5	19.7				MTT Screen, first value of cell ([1]; first value of 'a/b (c)', taken as A431 cells): non- conver- gent
O=C(NC(=S)Nc1ccc(S(=O)(=O)NC2CCCCC2)cc1)C1CC1 [AD4-12171]	37.375	38.9	37.1				
Cc1cc(NS(=O)(=O)c2ccc(NC(=S)NC(=O)/C=C/c3ccccc3)cc2)no1 [AD4-12173]	35.393	37.3					IC50 [1, 4]: 55.8 µM; IC50 (MDBK line; [5]): 106 µM and 54 µM
Cc1ccc(NS(=O)(=O)c2ccc(NC(=S)NC(=O)C3CCC3)cc2)cc1C [AD4-12175]	42.36						IC50 [1, 4]: 40 µM; IC50 (MDBK line; [5]): 9.56 µM
CCCC(=O)NC(=S)Nc1ccc(S(=O)(=O)Nc2ccc(OCC)cc2)cc1 [AD4-12183]	37.695	25.6	17.2				
COc1ccc(NS(=O)(=O)c2ccc(NC(=S)NC(=O)COc3ccc(Cl)cc3C)cc2)cc1 [AD4-12196]	34.379	18	36.8				
COc1ccc(NC(=S)Nc2ccc(S(=O)(=O)Nc3ccc(Cl)c(Cl)c3)cc2)cc1OC [AD4-12246]				38.3844	8.36	8.01	
Cc1cc(C)c(NS(=O)(=O)c2ccc(NC(=S)Nc3ccc(S(N)(=O)=O)cc3)cc2)c(C)c1 [AD4-12250]				29.3683	12.7	11.6	
COc1cc(NS(=O)(=O)c2ccc(NC(=S)NC(=O)/C=C/c3ccccc3)cc2)nc(OC)n1 [AD4-12262]	40.146						IC50 [1, 4]: 42.9 µM; IC50 (MDBK line; [5]): 43.4 µM
COc1ccccc1/C=C/C(=O)NC(=S)Nc1ccc(S(=O)(=O)N2CCN(C)CC2)cc1 [AD4-12265]	31.19	38.1	35.1				
COc1ccc(CC(=O)NC(=S)Nc2ccc(S(=O)(=O)Nc3nc(C)cc(C)n3)cc2)cc1 [AD4-12266]	29.289	49.6	45.9				
Cc1cc(NS(=O)(=O)c2ccc(NC(=S)NC(=O)/C=C/c3ccccc3)cc2)no1 [AD4-12273]	33.104						IC50 [1, 4]: 31.7 µM; IC50 (MDBK line; [5]): 42.9 µM
CN(c1ccccc1)S(=O)(=O)c1ccc(NC(=S)NC(=O)/C=C/c2ccc(F)cc2)cc1 [AD4-12280]	41.439	10.2	17.7				IC50 [1, 4]: 5.76 µM; IC50 (MDBK line; [5]): 21.2 µM
CC1CCN(S(=O)(=O)c2ccc(NC(=S)NC(=O)C3CC3)cc2)CC1 [AD4-12286]	26.829	15.5	29.9				

Compound	ICW Screen (ICW Inhibition) (EGFR)	IC50 [1, 2] [µM]	IC50 (MDBK line; [3]) [µM]	ICW assay (EGFR)	IC50 [1, 6] [µM]	IC50 (MDBK line; [7]) [µM]	further results
CCN(c1ccccc1)S(=O)(=O)c1ccc(NC(=S)Nc2ccccc2)cc1 [AD4-12389]				72.5659			IC50 [1, 8]: 12.2 µM; IC50 (MDBK line; [9]): 6.07 µM
CC(=O)c1cccc(NC(=S)Nc2ccc(S(=O)(=O)Nc3c(C)cc(C)cc3C)cc2)c1 [AD4-12391]				37.4191	11.1	9.09	
Cc1cc(C)c(NS(=O)(=O)c2ccc(NC(=S)Nc3ccccc3F)cc2)c(C)c1 [AD4-12395]				57.5206	7.92	6.96	
Cc1ccc(NC(=S)Nc2ccc(S(=O)(=O)Nc3cc(Cl)cc(Cl)c3)cc2)cc1C [AD4-12400]				69.4793	4.05	5.77	
CCC(C)c1ccc(NC(=S)Nc2ccc(S(=O)(=O)Nc3c(C)cc(C)cc3C)cc2)cc1 (stereo not drawn) [AD4-12403]				50.7196	4.03	5.3	
COc1cccc(NC(=S)Nc2ccc(S(=O)(=O)Nc3ccc(Cl)cc3)cc2)c1 [AD4-12411]				34.0556	6.7	5.18	
Cc1ccc(NC(=S)Nc2ccc(S(=O)(=O)Nc3ccc(Cl)cc3)cc2)cc1 [AD4-12413]				35.1946	6.83	6.35	
O=S(=O)(Nc1ccc(Cl)cc1)c1ccc(NC(=S)Nc2cccc(C(F)(F)F)c2)cc1 [AD4-12423]				129.155	6.35	5.77	IC50 [1, 8]: 4.23 µM; IC50 (MDBK line; [9]): 2.92 µM
CC(C)c1ccc(NC(=S)Nc2ccc(S(=O)(=O)Nc3cc(Cl)cc(Cl)c3)cc2)cc1 [AD4-12424]				82.3761	4.08	4.73	
CCc1ccc(NC(=S)Nc2ccc(S(=O)(=O)Nc3ccc(Cl)c(Cl)c3)cc2)cc1 [AD4-12430]				82.0877	4.07	5.54	
O=S(=O)(Nc1ccc(Cl)c(Cl)c1)c1ccc(NC(=S)Nc2cccc(F)c2)cc1 [AD4-12431]				26.7815	6.4	5.57	
COc1ccc(NS(=O)(=O)c2ccc(NC(=S)Nc3ccc(OC)c(OC)c3)cc2)cc1 [AD4-12433]				54.4095	29.1	38.5	
O=S(=O)(Nc1ccc(Cl)cc1)c1ccc(NC(=S)Nc2ccccc2C(F)(F)F)cc1 [AD4-12435]				41.4281	6.67	6.15	
CCc1ccc(NC(=S)Nc2ccc(S(=O)(=O)Nc3cc(Cl)cc(Cl)c3)cc2)cc1 [AD4-12436]				108.826	5.47	5.53	
Cc1ccc(NC(=S)Nc2ccc(S(=O)(=O)Nc3ccc(Cl)c(Cl)c3)cc2)cc1 [AD4-12438]				53.245	5.69	5.9	
Cc1cccc(NC(=S)Nc2ccc(S(=O)(=O)Nc3ccc(Cl)c(Cl)c3)cc2)c1 [AD4-12442]				79.1185	5.59	5.76	
CCOc1ccccc1NC(=S)Nc1ccc(S(=O)(=O)Nc2ccc(Cl)c(Cl)c2)cc1 [AD4-12443]				44.7896	6.71	6.91	
Cc1ccc(NC(=S)Nc2ccc(S(=O)(=O)Nc3cc(Cl)cc(Cl)c3)cc2)cc1 [AD4-12460]				42.5115	6.33	5.61	
Cc1cc(C)cc(NC(=S)Nc2ccc(S(=O)(=O)Nc3cc(Cl)cc(Cl)c3)cc2)c1 [AD4-12461]				53.1391	4.06	5.91	
CCOc1ccccc1NC(=S)Nc1ccc(S(=O)(=O)Nc2c(C)cc(C)cc2C)cc1 [AD4-12465]				31.3476	9.92	6.54	
CCC(C)c1ccc(NC(=S)Nc2ccc(S(=O)(=O)Nc3ccc(OC)cc3)cc2)cc1 (stereo not drawn) [AD4-12468]				77.7928	4.04	5.41	
Cc1cccc(NC(=S)Nc2ccc(S(=O)(=O)Nc3cc(Cl)cc(Cl)c3)cc2)c1 [AD4-12472]				64.2647	6.23	5.42	
Cc1ccccc1NS(=O)(=O)c1ccc(NC(=S)Nc2ccc(F)c(Cl)c2)cc1 [AD4-12477]				44.2167	6.65	5.44	
